± gives the standard deviation of the reports.
glass transition temperature | SMILES
112.00 °C | *CCCCCCNC(=O)c1ccc(C(=O)N*)c(Oc2ccc(-c3ccccc3)cc2)c1 (repeat unit)
217.00 °C | *Oc1ccc(Oc2ccc(C(=O)Nc3ccc(Oc4ccc(S(=O)(=O)c5ccc(Oc6ccc(NC(=O)c7ccc(*)cc7)cc6)cc5)cc4)cc3)cc2)cc1C (repeat unit)
211.50 °C | *CC(*)(C)C(=O)OCCCc1ccc(/N=N/c2ccc(OC(F)(F)F)cc2)cc1 (repeat unit)
280.00 °C | *Oc1ccc(NC(=C(C#N)C#N)c2ccc3cc(C(Nc4ccc(*)cc4)=C(C#N)C#N)ccc3c2)cc1 (repeat unit)
213.00 °C | *Oc1ccc(C(=O)Nc2cc(C(c3ccc(C)c(NC(=O)c4ccc(OC(=O)c5ccc(C(*)=O)cc5)cc4)c3)(C(F)(F)F)C(F)(F)F)ccc2C)cc1 (repeat unit)
178.00 °C | */C=C/c1ccc2c(c1)C(CCCCCC)(CCCCCC)c1cc(/C=C/c3nc(*)c(C#N)c(/C=C/c4ccc(N(c5ccccc5)c5ccccc5)cc4)c3C#N)ccc1-2 (repeat unit)
57.00 °C | *CC(*)(C)C(=O)OCCCCCCCCCCOc1ccc(OC(=O)c2ccc(-c3ccc(OC)cc3)cc2)cc1 (repeat unit)
-63.83 ± 1 °C | *CC(*)(C)C(=O)OCCCCCCCCCC (repeat unit) [Poly(decyl methacrylate)]
365.00 °C | *Nc1ccc(C(c2ccc(NC(=O)c3cc(NC(=O)C45CC6CC(CC(C6)C4)C5)cc(C(*)=O)c3)cc2)(C(F)(F)F)C(F)(F)F)cc1 (repeat unit)
160.00 °C | *Oc1ccc(NC(=O)c2cc(NC(=O)CCCCCCCCCCN3C(=O)c4ccccc4C3=O)cc(C(=O)Nc3ccc(*)cc3)c2)cc1 (repeat unit)
47.00 °C | *CCCCCCOc1ccc(C(=O)OC(=O)c2ccc(O*)cc2)cc1 (repeat unit)
293.00 °C | *c1ccc(-c2nc3cc(Oc4ccc(NC(=O)c5ccc6c(c5)C(=O)N(c5ccc(C(c7ccc(N8C(=O)c9ccc(C(=O)Nc%10ccc(Oc%11ccc%12nc(-c%13ccccc%13)c(*)nc%12c%11)cc%10)cc9C8=O)cc7)(C(F)(F)F)C(F)(F)F)cc5)C6=O)cc4)ccc3nc2-c2ccccc2)cc1 (repeat unit)
57.00 °C | *Oc1ccc(NC(=O)c2ccc(C(=O)Nc3ccc(OC4COC5C(*)COC45)cc3)cc2)cc1 (repeat unit)
95.00 °C | *CCCCCOC(=O)Nc1ccc(Cc2ccc(NC(=O)O*)cc2)cc1 (repeat unit)
178.50 °C | *c1ccc(OCCOc2cccc(N3C(=O)c4ccc(Oc5ccc6c(c5)C(=O)N(*)C6=O)cc4C3=O)c2)cc1 (repeat unit)
153.00 °C | *CC(*)(Cl)C(=O)OCCOc1ccc(C(=O)Oc2ccc(OCCCC)cc2)cc1 (repeat unit)
129.00 °C | *O[Si](*)(C)CCCOc1ccc2c(c1)c1cc(-c3ccc4c(c3)c3ccccc3n4CC(CC)CCCC)ccc1n2CC(CC)CCCC (repeat unit)
289.00 °C | *c1ccc2c(c1)C(=O)N(c1c(C)cc(C(c3ccccc3)(c3cc(C)c(N4C(=O)c5ccc(C(*)(C(F)(F)F)C(F)(F)F)cc5C4=O)c(C(C)C)c3)C(F)(F)F)cc1C(C)C)C2=O (repeat unit)
135.00 °C | *OC(COC(=O)c1cccc(-c2ccc(C(*)=O)cc2)c1)COc1ccc(/N=N/c2ccc(C#N)cc2)cc1 (repeat unit)

glass transition temperature | SMILES
175.00 °C | *c1ccc(Oc2ccc(C3(c4ccc(Oc5ccc(N6C(=O)CC(=O)N(*)C6=S)cc5)cc4)c4ccccc4-c4ccccc43)cc2)cc1 (repeat unit)
57.00 °C | *c1nc(-c2ccccc2)nc(N(C)CCCCCCN(*)C)n1 (repeat unit)
66.00 °C | *OC(=O)CNC(=O)CCCCCCCCC(=O)NCC(=O)OC1COC2C(*)COC12 (repeat unit)
97.00 °C | *CCCCCCCCCCCN1C(=O)c2ccc(C(=O)Oc3ccc(-c4ccc(OC(=O)c5ccc6c(c5)C(=O)N(*)C6=O)cc4)cc3)cc2C1=O (repeat unit)
284.00 °C | *Nc1ccc(C2(c3ccc(NC(=O)c4cc(C(*)=O)cc(C(C)(C)C)c4)cc3)c3ccccc3-c3ccccc32)cc1 (repeat unit)
110.00 °C | *Oc1cccc(NC(=O)CCCCCCCCCC(=O)Nc2ccc(*)cc2)c1 (repeat unit)
35.80 °C | *CC(*)C(=O)OCCCCCCOc1ccc(/N=N/c2ccc([N+](=O)[O-])cc2)cc1 (repeat unit)
116.00 °C | *c1cc(Br)c(-c2c(Br)cc(N3C(=O)c4ccc(-c5ccc6c(c5)C(=O)N(*)C6=O)cc4C3=O)cc2C(=O)OCCCCCCCCCC)c(C(=O)OCCCCCCCCCC)c1 (repeat unit)
131.00 °C | */C=C/C1CC(*)C2C(=O)N(CCCC)C(=O)C12 (repeat unit)
173.00 °C | *Oc1ccc(C(CC)(c2ccccc2)c2ccc(OC(*)=S)cc2)cc1 (repeat unit)
197.00 °C | *C(=O)c1ccc2c(c1)C(=O)N(c1cc(-c3nc4ccccc4[nH]3)cc(N3C(=O)c4ccc(*)cc4C3=O)c1)C2=O (repeat unit)
225.00 °C | *c1ccc(Cc2ccc(-n3nc(-c4ccccc4)cc3-c3cccc(-c4cc(-c5ccccc5)nn4*)c3)cc2)cc1 (repeat unit)
-59.00 °C | *CCOCCOC(=O)C(CCCCCCCCC)C(=O)O* (repeat unit)
6.00 °C | *c1ccc(-c2cc(CCCCCCCC)c(-c3ccc(-c4ccc(-c5sc(-c6ccc([Si](C)(C)[Si](C)(C)[Si](C)(C)[Si](*)(C)C)s6)cc5CCCCCCCC)s4)s3)s2)s1 (repeat unit)
254.40 °C | *c1ccc(OCC2CCC(COc3ccc(N4C(=O)c5ccc(-c6ccc7c(c6)C(=O)N(*)C7=O)cc5C4=O)cc3)CC2)cc1 (repeat unit)
107.00 °C | *CC1CCCC(CNC(=O)CCCCC(=O)N*)C1 (repeat unit)
227.00 °C | *Oc1c(Cl)cc(C(C)(C)c2cc(Cl)c(OC(*)=O)c(Cl)c2)cc1Cl (repeat unit)
30.00 °C | *CC(O)COC(=O)CCCCCCCCC(=O)OCC(O)COc1ccc(C(C)(C)c2ccc(O*)cc2)cc1 (repeat unit)

SMILES | glass transition temperature
*CCCCCOCO* (repeat unit) | -80.00 °C
*OC(CC)CC(*)=O (repeat unit) | -15.40 °C
*CCCCO* (repeat unit) [Poly(tetramethylene glycol)] | -83.6 ± 2.2 °C
*CC(*)SCC (repeat unit) | -7.00 °C
*CC(*)OC(=O)c1cccc(Cl)c1 (repeat unit) | 61.8 °C
*Sc1ccc(Nc2ccc(*)cc2)cc1 (repeat unit) | 145.00 °C
*CC(*)(CCC(C)C(=O)OC)C(=O)OC (repeat unit) | 34.00 °C
*c1ccc2c(c1)C(=O)N(c1cccc(P(=O)(c3ccc(C(F)(F)F)cc3)c3cccc(N4C(=O)c5ccc(C(*)(C(F)(F)F)C(F)(F)F)cc5C4=O)c3)c1)C2=O (repeat unit) | 260.00 °C
*CCCCCCOC(=O)C(CCCCCCP(=O)(O)O)C(=O)OCCCCCCOc1ccc(-n2on2-c2ccc(O*)cc2)cc1 (repeat unit) | 21.00 °C

Source: the PolyMetriX glass transition set
